Assay results published in US20070078168A1, “PYRIDINE CARBOXYLIC ACID DERIVATIVES AS GLUCOKINASE MODULATORS” (priority 2003, published 2007).

What was measured:
[1] = Plasma protein binding by equilibrium dialysis; assay type: in vitro ADME; details: rat, 37° C., plasma vs isotonic phosphate buffer pH 7.4, read-out: % free in plasma
Protocol: (§1) Measurement of Plasma Levels and Plasma Protein Binding Following Oral Administration to Rats
The plasma protein binding of compounds was measured using the equilibrium dialysis technique (W. Lindner et al, J. Chromatography, 1996, 677, 1-28 ). Compound was dialysed at a concentration of 20 μM for 18 hours at 37° C. with plasma and isotonic phosphate buffer pH 7.4 (1 ml of each in the dialysis cell). A Spectrum® 20-cell equilibrium dialyser was used together with Teflon, semi-micro dialysis cells and Spectra/Por®2 membrane discs with a molecular weight cut off 12-14000 Dalton, 47 mm (supplied by PerBio Science UK Ltd, Tattenhall, Cheshire). Plasma and buffer samples are removed following dialysis and analysed using HPLCUV/MS (high performance liquid chromatography with UV and mass spec detection) to give the % free level in plasma.

[2] = Plasma levels following oral administration to rats; assay type: in vivo; details: rat, oral gavage; including both bound and free; normalised dose of 1 mg compound per kilogram of rat body weight
Protocol: as §1
Planetary Milled compounds [15 mins, 500 rpm, 5 Zirconium Balls, in a Puluerisette 7 Mill (Glen Creston Ltd, Stanmore, Middlesex, UK)] were suspended in 0.5% HPMC Tween and dosed to High Fat Fed (Research Diets, D12451, ad lib feeding 14 days) Female Alderley Park Zucker or Alderley Park Wistar rats at rate of 5 mls/kg, at doses between 0.3 and 10 mg/kg by oral gavage.
Samples of plasma were obtained either by conscious blood sampling or terminal blood sampling as follows:
Conscious blood sampling (for compound level or blood chemistry)—Intravenous blood samples were taken from tail vein using 600 μl Starstedt Multivette (EDTA) and 22 G needle at the required time point. […]
The reconstituted samples were then analysed using high performance liquid chromatography with tandem mass spectrometry detection (HPLC-MS-MS)”. […]
The concentration of test samples was determined from the ratio of the peak height of the test sample to the peak height of the internal standard. The concentration of the test sample was calculated with reference to a standard curve relating the ratio to the concentration prepared by using known concentrations of test sample added to samples of rat plasma using (3-isopropoxy-5-benzyoxy-benzoyl)amino pyridine 3-carboxylic acid as an internal standard, treated as described above.

With `COC[C@H](C)Oc1cc(O[C@@H](C)Cc2ccccc2OC)cc(C(=O)Nc2ccc(C(=O)O)cn2)c1` [Example 2.1, 6-{3-[(1S)-1-methyl-2-(2-methoxyphenyl)ethoxy]-5-[(1S)-2-methoxy-1-methylethoxy]-benzoylamino}-3-pyridine carboxylic acid] the fraction unbound at 18 hours, 20 μM [1] was 0.0042 and the “Peak Blood levels” value [2] was 1.29 µM.
